The source of these data is US20250114337A1, “METHODS FOR VASCULAR REGENERATION AND WOUND TREATMENT” (THE METHODIST HOSPITAL, priority 2022, published 2025).

The structures appear in SMILES notation. “Also recorded” adds a separate entry of the source.

In one assay the test system is BJ fibroblasts. Description: in vitro transdifferentiation of fibroblasts to induced endothelial cells (iECs). The assay is classed as cell-based, human. To be noted: fibroblasts exposed during transdifferentiation protocol. An excerpt:
Innate immune activation is required for transdifferentiation. […] 131 (3): p. 300-9). iECs generated from this protocol manifest high fidelity for endothelial lineage. They incorporate acetylated LDL (FIG. 2B), form tubular networks (FIG. 2C), have similar transcriptomes as genuine endothelial cells, and increase capillary density and perfusion when injected into the ischemic hindlimb of the mouse (FIG. 2D) (Sayed, N., et al., Circulation, 2015. 131 (3): p. 300-9). This protocol can be utilized to study the role of O-GlcNAcylation in transdifferentiation in vitro.
O-GlcNAcylation is required for in vitro transdifferentiation. To define if the elevation of O-GlcNAcylation is required for transdifferentiation, fibroblasts were exposed to Thiamet G (TMG) (an OGA inhibitor that enhances O-GlcNAcylation) or DON (an inhibitor for GFAT that acts upstream in the hexosamine biosynthesis pathway and reduces O-GlcNAcylation). The number of iECs generated during transdifferentiation is increased when fibroblasts are exposed to TMG and decreased when exposed to DON (FIG. 5A). […] The role of O-GlcNAcylation of specific epigenetic regulars e.g., HIRA during transdifferentiation can also be addressed.
To define if the elevation of O-GlcNAcylation is required for transdifferentiation, inhibitors of O-GlcNAcylation including OSMI (an inhibitor for OGT) and DON (an inhibitor for GFAT that acts upstream in the hexosamine biosynthesis pathway and reduces O-GlcNAcylation) or an activator of O-GlcNAcylation. Thiamet G (TMG) (an OGA inhibitor that enhances O-GlcNAcylation), were delivered to BJ fibroblasts undergoing transdifferentiation. The number of CD31 expressing iECs generated during transdifferentiation decreases when exposed to OSMI or DON and increases when fibroblasts are exposed to TMG (FIG. 17B). Then OGT or OGA were knocked down using shRNA in the BJ fibroblasts (FIG. 17C) and performed transdifferentiation protocol in vitro.

Assay [1] relates to ischemic hindlimb mice model. Kind of assay: hindlimb ischemia recovery in WT C57BL/6 mice, laser doppler imaging. In kind it is in vivo, mouse. To be noted: TMG 10 mg/kg 0, 1, 2 days post-surgery; older mice (around 20 weeks). On the procedure: O-GlcNAcylation manipulations regulated recovery from tissue ischemia. To determine if the change in O-GlcNAcylation can modulate limb ischemia recovery, and contributes to vascular recovery, WT C57BL/6 mice were treated with the O-GlcNAcylation inhibitor, OSMI4, or O-GlcNAcylation enhancer, TMG 0, 1, 2 days post-surgery. Age is an important factor that determines recovery, and younger mice are known to have a more robust angiogenic response as compared with older mice. Accordingly, younger mice (between 8 to 12 weeks) were used to assess the impairment of angiogenesis by OSMI (which reduces O-GlcNAcylation). Older mice (around 20 weeks) were used to assess the enhancement of angiogenesis by TMG (which increases O-GlcNAcylation). […] It will be determined whether this beneficial effect is mediated by increased DNA accessibility and enhanced transdifferentiation.
To determine if O-GlcNAcylation manipulations can modulate the overall effect of vascular recovery from limb ischemia. WT C57BL/6 mice were treated with the O-GlcNAcylation inhibitor. OSMI4 (10 mg/kg), or O-GlcNAcylation enhancer. TMG (10 mg/kg) 0, 1, 2 days post-surgery (FIG. 19A).

A further assay has as its system ischemic hindlimb model. Description: ischemic hindlimb model in fibroblast lineage tracing Fsp1-Cre: R26R-EYFP mice. To be noted: ischemic hindlimb. The assay is classed as in vivo, mouse. On the procedure:
Using established transdifferentiation protocol and metabolomics profiling to assess the global metabolic changes during transdifferentiation. […] To determine the role of this metabolite in transdifferentiation, the effect of Thiamet G was assessed, an inhibitor of OGA, which enhances O-GlcNAcylation. Thiamet G increased transdifferentiation efficiency in vitro. In a fibroblast lineage tracing mice, Fsp1-Cre: R26R-EYFP mice, Thiamet G increased tissue O-glycnacylation, increased capillary density and limb perfusion, and increased the number of fibroblasts transdifferentiating into endothelial cells (i.e. FSP+CD31+ cell) in an ischemic hindlimb model.
Angiogenic transdifferentiation in limb ischemia. A fibroblast lineage tracing mouse model (Fsp1-Cre: R26R-EYFP) was used to detect transdifferentiation in vivo in a murine model of limb ischemia (Meng, S., et al., Circulation, 2020. 142 (17): p. 1647-1662). […] This population is abolished when the mice are treated with anti-inflammatory drugs, such as dexamethasone. Intriguingly, the disappearance of these cells is associated with a reduction in perfusion recovery and worsening clinical scores. Similar results are achieved when inflammatory signaling is impaired, as in Fsp1-Cre: Rela flox/flox mice. In these animals, NFκB signaling is blocked in the Fsp1+fibroblasts, associated with a dramatic reduction in transdifferentiated fibroblasts (i.e. YFP+CD144+ cells), and impaired perfusion (Meng. S., et al., Circulation, 2020. 142 (17): p. 1647-1662). […] Cluster 8 produced angiogenic cytokines, whereas Cluster 5 expressed genes associated with EC identity (i.e CD144). But only Cluster 5 could generate EC-like networks in Matrigel whereas other fibroblasts, including Cluster 8 fibroblasts, formed nodal structures typical of fibroblasts in Matrigel. The data support the idea that transdifferentiation may occur in vivo with tissue ischemia, and is dependent on inflammatory signaling. This model can be used to study the contribution of O-GlcNAcylation in transdifferentiation and limb ischemia recovery in vivo. A similar lineage tracing approach can be used with tamoxifen-inducible Col1A2-Cre/ERT: R26R-tdTomato mouse strain to study the contribution of O-GlcNAcylation in transdifferentiation and limb ischemia recovery in vivo.
To determine if O-GlcNAcylation enhances revascularization through transdifferentiation, fibroblasts lineage tracing Fsp1-Cre: R26R-EYFP mice strain were utilized where it was previously observed the in situ transdifferentiation phenomenon (FIG. 20A). In this model, all the fibroblasts expressing Fsp1 (fibroblast-specific protein1) are marked with YFP. With this model, a significant increase in the FSP-expressing cell progeny in the ischemic limb was identified compared with the sham-operated limb 3 days after the femoral artery ligation was perform (FIG. 20A) and compare the YFP+ cells over the different time points (FIG. 20A). The percentage of the YFP+CD31+CD11b-cell population which is considered the transdifferentiation population was analyzed further. […] To determine the role of the O-GlcNAcylation on the transdifferentiation, the Fsp1-Cre: R26R-EYFP mice that are undergoing vascular recovery with OSMI were treated, and the transdifferentiation population in the limb muscle tissue 7 days post-surgery was analyzed.

For the compound `CCNC1=NC2C(OC(CO)C(O)C2O)S1` (centres unmarked) [TMG, 2-(ethylamino)-5-(hydroxymethyl)-5,6,7,7a-tetrahydro-3aH-pyrano[3,2-d][1,3]thiazole-6,7-diol], in the assay with BJ fibroblasts, the “iEC yield (number of CD31 expressing iECs generated during transdifferentiation)” value is listed as “increases”. Further, the “iEC yield (number of CD31 expressing iECs generated during transdifferentiation)” value in the assay on BJ fibroblasts (listed as Thiamet G) was “increased”. In addition, the “recovery of blood flow post femoral artery ligation (revascularization)” value in assay [1] was “enhanced recovery; also recorded: enhances”. Moreover, in the assay on ischemic hindlimb model, the capillary density entry is given as “increased”, the limb perfusion result is given as “increased”, the “number of fibroblasts transdifferentiating into endothelial cells (FSP+CD31+ cell)” value is reported as “increased” and the “tissue O-glycnacylation” value is “increased”.
As to `[N-]=[N+]=CC(=O)CC[C@H](N)C(=O)O` [DON], the “iEC yield (number of CD31 expressing iECs generated during transdifferentiation)” value in the assay with BJ fibroblasts was “decreases; also recorded: impair”.
